The source of these data is US8598159B2, “Therapeutic pyrazoloquinoline derivatives” (Dart Neuroscience (Cayman) Ltd., priority 2007, dated 2013).

One test concerns GABAA receptors. Put plainly: Electrophysiology assay (two-electrode voltage clamp, Xenopus oocytes expressing GABAA receptors). The test is classed as cell-based. As to conditions: positive (Pos) or negative (Neg) modulation of current at GABA EC20, screening concentration of 10 μM. As to the method:
The modulation of GABAA function is determined by changes in current as determined in an electrophysiology assay, as is detailed below.
mRNA was prepared from lyophilized plasmid pellets containing cDNA inserts encoding the specific GABAA receptor subunit. cDNAs encoding the α2, α3, and γ3 subunits were subcloned into pBluescript, SK^−. cDNAs encoding the a 1 and a 5 subunits were subcloned into prC while cDNA encoding the β2 subunit was subcloned into pcDNA1. The cDNA construct encoding the g 2s subunit is in the pGH19 expression construct. Overnight cultures of transformed DH5a bacterial cells were performed to grow sufficient quantities for maxiprep isolation of the plasmid cDNA. The resulting plasmid cDNA was linearized by digestion with an appropriate restriction enzyme that cleaves distal to the cDNA insert [XbaI (α1, β2), NotI (α3, γ2 s), SacII (α2), or ApaI (α5)]. Following digestion, plasmid cDNA was treated with proteinase K and extracted with phenol/chloroform/isoamyl alcohol, followed by ethanol precipitation. cDNA quality was assessed by agarose-gel electrophoresis (1.5% agarose gel). Samples were stored at −20° C. until use. In vitro transcription was performed with T7 RNA polymerase. mRNA was then stored at −80° C. until use. Plasmids were linearized with appropriate restriction enzymes before in vitro transcription using the Message Machine kit (Ambion, Austin, Tex.).
GABAA receptor expression in Xenopus oocytes: Following 45 min of 0.15% Tricaine anesthesia, an ovarian section containing the follicular oocytes was removed from the frog through a lateral abdominal incision. Oocytes were immediately placed in a calcium-free solution (NaCl 96 mM, MgCl2 1 mM, KCl 2 mM, Hepes 50 mM, pyruvate 2.5 mM, gentamycin 100 μg/mL, penicillin-streptomycin 50 U/mL, pH 7.4). Following 1.5-2 hour incubation in 0.2% collagenase (type II, Sigma Chemical Co., St. Louis, Mo.) at room temperature, individual Dumont stage V and VI oocytes were transferred to an incubator and maintained overnight in Barth's solution (NaCl 84 mM, NaHCO3 2.4 mM, MgSO4 0.82 mM, KCl 1 mM, Ca(NO3)2 0.33 mM, CaCl2 0.41 mM, Tris/HCl 7.5 mM, pyruvate 2.5 mM, gentamycin 50 μg/mL, penicillin-streptomycin, 100 units/mL, pH 7.4) at 18-20° C. and used for experiments 1-5 days post-injection. Oocytes were injected solution using an electronic microinjector (Drummond, Broomall, Pa.) with 50 nL of RNA containing 0.3-0.5 ng of each subunit RNA in a 1:1:2 ratio. The injected oocytes were used for experiments after 1-5 days of incubation in Barth's solution at 18-20° C.
Measurements of ion currents from oocytes expressing GABAA receptors were performed using a Warner two-electrode voltage-clamp amplifier (Warner Instruments, Inc., Foster City, Calif.) (Park-Chung, M. A., et al. (1999) Brain Res. 830: 72-87 incorporated herein in its entirety). Microelectrodes were fabricated from borosilicate glass capillaries with a programmed pipette puller (Sutter Instrument Co., CA). Microelectrode resistance was 1-3 MΩ when filled with 3 M KCl. The oocyte recording chamber was continuously perfused with ND-96 solution. Oocytes were clamped at a holding potential of −70 mV during data acquisition. The membrane current was filtered at 10 Hz and sampled at 100 Hz. Compounds were applied by a gravity-driven external perfusion system. The working volume of the recording chamber was […] and the rate of the perfusion was approximately […]. Compound application was 20-25 sec followed by a minimum of 150 sec wash. Data acquisition and external perfusion was computer controlled by custom-developed software. All experiments were performed at room temperature (22-24° C.). Dose-response data from each oocyte were fitted to the Hill equation by non-linear regression using the equation: IGABA=Emax/(1+(EC50/c)nH)
Emax is the maximum response, EC50 is the concentration producing 50% of the maximal response, nH is the Hill coefficient and c is the concentration of agonist. […]
Background: Two-electrode voltage clamp holds a large cell at a set potential and records current.

The target in test [1] is GABAA central benzodiazepine receptor. Briefly: Benzodiazepine binding assay ((3H)-flunitrazepam displacement). The following applies: read-out: BZ binding assay (IC50); rat whole brain (except cerebellum), 1 nM (3H)-flunitrazepam, 60 minutes at 25° C.; 3-concentration dose response curve.

In general, IC50 refers to the concentration needed to halve the response being measured. For `O=c1c2c[nH]c3ccc(N4CCNCC4)cc3c-2nn1-c1ccc(Cl)cc1` [7c, 2-(4′-Chlorophenyl)-8-piperazin-1-yl-2,5-dihydro-pyrazolo[4,3-c]quinolin-3-one], the “EP Result” value in the test with GABAA receptors is recorded as “Pos”. In test [1], the IC50 was less than 1000 nM.
With `CN1CCN(c2ccc3[nH]cc4c(=O)n(-c5ccc(Cl)cc5)nc-4c3c2)CC1` [7d, 2-(4′-Chlorophenyl)-8-(4-methylpiperazin-1-yl)-2,5-dihydro-pyrazolo[4,3-c]quinolin-3-one], the “EP Result” value with GABAA receptors was “Pos”. Further, the IC50 in test [1] is less than 1000 nM.
For `COc1ccc(-n2nc3c4cc(N5CCNCC5)ccc4[nH]cc-3c2=O)cc1` [7e, 2-(4′-Methoxyphenyl)-8-piperazin-1-yl-2,5-dihydro-pyrazolo[4,3-c]quinolin-3-one], in that order: “Pos” and less than 1000 nM.
For `COc1ccc(-n2nc3c4cc(N5CCN(C)CC5)ccc4[nH]cc-3c2=O)cc1` [7f, 2-(4′-Methoxyphenyl)-8-(4-methylpiperazin-1-yl)-2,5-dihydro-pyrazolo[4,3-c]quinolin-3-one], the “EP Result” value in the test on GABAA receptors is “Pos”. Further, in test [1], the IC50 is less than 1000 nM.
For `O=c1c2c[nH]c3cc(N4CCNCC4)ccc3c-2nn1-c1ccccc1` [14a, 2-Phenyl-7-piperazin-1-yl-2,5-dihydro-pyrazolo[4,3-c]quinolin-3-one], in that order: “Neg” and more than 1000 nM.
On the same counts, the results for `CN1CCN(c2ccc3c4nn(-c5ccccc5)c(=O)c-4c[nH]c3c2)CC1` [14b, 7-(4-Methylpiperazin-1-yl)-2-phenyl-2,5-dihydro-pyrazolo[4,3-c]quinolin-3-one] are “Neg” and less than 1000 nM.
For `O=c1c2c[nH]c3cc(N4CCNCC4)ccc3c-2nn1-c1ccc(Cl)cc1` [14c, 2-(4′-Chlorophenyl)-7-piperazin-1-yl-2,5-dihydro-pyrazolo[4,3-c]quinolin-3-one], in that order: “Neg” and less than 1000 nM.
`CN1CCN(c2ccc3c4nn(-c5ccc(Cl)cc5)c(=O)c-4c[nH]c3c2)CC1` [14d, 2-(4-Chlorophenyl)-7-(4-methylpiperazin-1-yl)-2,5-dihydro-pyrazolo[4,3-c]quinolin-3-one]: the “EP Result” value with GABAA receptors is “Neg”. Also, the IC50 in test [1] is less than 1000 nM.
Regarding `COc1ccc(-n2nc3c4ccc(N5CCNCC5)cc4[nH]cc-3c2=O)cc1` [14e, 2-(4-Methoxyphenyl)-7-piperazin-1-yl-2,5-dihydro-pyrazolo[4,3-c]quinolin-3-one], the “EP Result” value in the test with GABAA receptors is listed as “Neg”. Moreover, the IC50 in test [1] was less than 1000 nM.
For `COc1ccc(-n2nc3c4ccc(N5CCN(C)CC5)cc4[nH]cc-3c2=O)cc1` [14f, 2-(4-Methoxyphenyl)-7-(4-methylpiperazin-1-yl)-2,5-dihydro-pyrazolo[4,3-c]quinolin-3-one], in that order: “Neg” and more than 1000 nM.
For `O=c1c2c[nH]c3cc(F)c(N4CCOCC4)cc3c-2nn1-c1ccccc1` [19a, 7-Fluoro-8-morpholin-4-yl-2-phenyl-2,5-dihydro-pyrazolo[4,3-c]quinolin-3-one], in that order: “Pos” and less than 1 nM.
As for `CC(C)N1CCN(c2ccc3[nH]cc4c(=O)n(-c5ccccc5)nc-4c3c2)CC1` [19b, 8-(4-Isopropylpiperazin-1-yl)-2-phenyl-2,5-dihydro-pyrazolo[4,3-c]quinolin-3-one], the “EP Result” value in the test on GABAA receptors was “Pos”. Moreover, in test [1], the concentration for half-maximal inhibition (IC50) was less than 1000 nM.
For `O=c1c2c[nH]c3ccc(N4CCOCC4)cc3c-2nn1-c1ccccn1` [19c, 8-Morpholin-4-yl-2-pyridin-2-yl-2,5-dihydro-pyrazolo[4,3-c]quinolin-3-one], in that order: “Neg” and less than 1000 nM.
For the molecule `O=c1c2c[nH]c3ccc(N4CCOCC4)cc3c-2nn1-c1ccccc1` [19d, 8-Morpholin-4-yl-2-phenyl-2,5-dihydro-pyrazolo[4,3-c]quinolin-3-one], the “EP Result” value in the test with GABAA receptors is “Neg”. For the same molecule, the IC50 in test [1] is less than 1000 nM.
On the same counts, the results for `O=c1c2c[nH]c3ccc(N4CCOCC4)cc3c-2nn1-c1ccccc1F` [19e, 2-(2-Fluorophenyl)-8-morpholin-4-yl-2,5-dihydro-pyrazolo[4,3-c]quinolin-3-one] are “Neg” and less than 1000 nM.
For `COCCN1CCN(c2ccc3[nH]cc4c(=O)n(-c5ccccc5)nc-4c3c2)CC1` [19f, 8-[4-(2-Methoxyethyl)-piperazin-1-yl]-2-phenyl-2,5-dihydro-pyrazolo[4,3-c]quinolin-3-one], in that order: “Pos” and less than 1000 nM.
In the case of `O=c1c2c[nH]c3ccc(N4CCCCC4)cc3c-2nn1-c1ccccc1` [19g, 2-Phenyl-8-piperidin-1-yl-2,5-dihydro-pyrazolo[4,3-c]quinolin-3-one], in the test on GABAA receptors, the “EP Result” value is given as “Pos”. Also, the IC50 in test [1] was less than 1000 nM.
In the case of `COc1ccc(-n2nc3c4cc(N5CCN(C(C)C)CC5)ccc4[nH]cc-3c2=O)cc1` [19i, 8-(4-Isopropylpiperazin-1-yl)-2-(4-methoxyphenyl)-2,5-dihydro-pyrazolo[4,3-c]quinolin-3-one], in the test on GABAA receptors, the “EP Result” value is “Pos”. Moreover, the IC50 in test [1] is less than 1000 nM.
`O=c1c2c[nH]c3cc(Cl)c(N4CCNCC4)cc3c-2nn1-c1ccccc1` [19j, 7-Chloro-2-phenyl-8-piperazin-1-yl-2,5-dihydro-pyrazolo[4,3-c]quinolin-3-one]: the “EP Result” value in the test on GABAA receptors is listed as “Neg”. The IC50 in test [1] is less than 1000 nM.
As for `O=c1c2c[nH]c3cc(Cl)c(N4CCOCC4)cc3c-2nn1-c1ccccc1` [19k, 7-Chloro-8-morpholin-4-yl-2-phenyl-2,5-dihydro-pyrazolo[4,3-c]quinolin-3-one], the “EP Result” value in the test with GABAA receptors is reported as “Pos”. Moreover, in test [1], the half-maximal inhibitory concentration (IC50) is less than 1000 nM.
On the same counts, the results for `O=c1c2c[nH]c3cc(N4CCOCC4)c(F)cc3c-2nn1-c1ccccc1` [28b, 8-Fluoro-7-morpholin-4-yl-2-phenyl-2,5-dihydro-pyrazolo[4,3-c]quinolin-3-one] are “Pos” and less than 1000 nM.
On the same counts, the results for `CC(C)N1CCN(c2cc3[nH]cc4c(=O)n(-c5ccccc5)nc-4c3cc2F)CC1` [28c, 8-Fluoro-7-(4-isopropylpiperazin-1-yl)-2-phenyl-2,5-dihydro-pyrazolo [4,3-c]quinolin-3-one] are “Pos” and less than 1000 nM.
`O=c1c2c[nH]c3cc(N4CCOCC4)c(F)cc3c-2nn1-c1ccccn1` [28d, 8-Fluoro-7-(morpholin-4-yl)-2-pyridin-2-yl-2,5-dihydro-pyrazolo[4,3-c]quinolin-3-one]: the “EP Result” value with GABAA receptors is given as “Neg”. Moreover, the IC50 in test [1] was less than 1000 nM.
Turning to `CC1CC(C)CN(c2cc3[nH]cc4c(=O)n(-c5ccccc5)nc-4c3cc2F)C1` (centres unmarked) [28e, 7-(3,5-Dimethylpiperidin-1-yl)-8-fluoro-2-phenyl-2,5-dihydro-pyrazolo[4,3-c]quinolin-3-one], in the test on GABAA receptors, the “EP Result” value is reported as “Pos”. The IC50 in test [1] is less than 1000 nM.
For `CN1CCN(c2cc3[nH]cc4c(=O)n(-c5ccccn5)nc-4c3cc2F)CC1` [28f, 8-Fluoro-7-(4-methylpiperazin-1-yl)-2-pyridin-2-yl-2,5-dihydro-pyrazolo[4,3-c]quinolin-3-one], in the test on GABAA receptors, the “EP Result” value is “Pos”. In addition, the IC50 in test [1] was less than 1000 nM.
